According to patent publication US20170252278A1, “INHIBITION OF MATURATION OF DENTAL BIOFILM AND CARIOGENIC PROPERTIES” (KONINKLIJKE PHILIPS N.V., priority 2014, published 2017):

Columns and labels:
Format in all cases: cell-based
[1] = system: in vitro oral plaque biofilms; assay: In vitro oral plaque biofilm formation in the Amsterdam Active Attachment Model, CFU determination; conditions: for in vitro oral plaque biofilm formation, Colony Forming Units: FIG. 1
Procedure: Stimulated saliva, used as inoculum, was collected on ice from ten donors. Saliva was donated 24 h after last brushing. The saliva was diluted 2-fold with 60% sterile glycerol, aliquoted and stored at −80° C. Before use, a pooled sample was prepared by mixing 200 μl of thawed saliva of each donor and vortexing for 30 seconds. In vitro oral plaque biofilms were inoculated 1:50 with pooled saliva.
In vitro oral plaque biofilms were grown in the Amsterdam Active Attachment Model (AAA-model, Exterkate et al. (2010)), assembled with glass coverslips (diameter 12 mm; Menzel, Braunschweig, Germany). The model was inoculated for 8 h with pooled saliva in buffered semi-defined McBain medium (2.5 g/l mucin (Sigma, St Louis, Mo.), 2.0 g/l Bacto peptone (Difco, Detroit, Mich.), 2.0 g/l Trypticase peptone (BBL, Cockeysville, Md.), 1.0 g/l yeast extract (BD Diagnostic Systems, Sparks, Md.), 0.35 g/l NaCl, 0.2 g/l KCl, 0.2 g/l CaCl2, 1 mg/l hemin (Sigma, St. Louis, Mo., USA), and 2 mg/l vitamin K1 (McBain et al. (2005)), with 50 mmol/1 PIPES at pH 7.0), with 0.2% sucrose.
In vitro oral plaque biofilms were grown in the AAA-model for 48-96 h in the presence of the compounds tested. The model was inoculated with saliva and incubated anaerobically at 37° C. for 8 hours to allow microbes to attach to the glass coverslips. After 8 hours of attachment, the inoculation medium was refreshed and in vitro oral plaque biofilms were grown for 16 hours. This refreshment routine was repeated daily until the day of harvesting.
In vitro oral plaque biofilms were harvested by transferring the glass coverslips into 2 ml phosphate buffered saline (PBS). The biofilms were dispersed using a Vibracell VCX130 sonicator with a maximum of 130 Watts and 20 kHz (Sonics & Materials, Newtown, USA). Bio films were sonicated on ice for 1 minute with a pulse rate of 50% and pulses of 1 second. Vibration amplitude was set to 40%.
To estimate the amount of in vitro oral plaque biofilm formation, total anaerobic colony forming units were determined. Briefly, serial dilutions of the dispersed bio films were made and plated on tryptic soy agar blood plates. Plates were subsequently incubated anaerobically for 96 h at 37° C. and colony forming units were determined by counting the number of colonies for each dilution.

[2] = system: in vitro oral plaque biofilms; assay: Microbial composition of biofilms by 16S rDNA sequencing; conditions: for Actinobacillus, share of biofilm composition / Actinomyces, share of biofilm composition / Campylobacter, share of biofilm composition / Fusobacterium, share of biofilm composition / Granulicatella, share of biofilm composition / Haemophilus, share of biofilm composition / Megasphaera, share of biofilm composition / Neisseria, share of biofilm composition / Other taxa, share of biofilm composition / Porphyromonas, share of biofilm composition / Prevotella, share of biofilm composition / Rothia, share of biofilm composition / Solobacterium, share of biofilm composition / Streptococcus, share of biofilm composition / Unclass. Pasteurellaceae, share of biofilm composition / Veillonella, share of biofilm composition: 3-Oxo-N 100 μM, furanones 10 μM
Procedure: DNA was isolated using phenol bead-beating followed by Agowa isolation, following the manufacturers instructions (LGC Genomics, Mag mini kit). Briefly, cells were mechanically disrupted four times at 1200 rpm for two minutes in addition of Tris-saturated Phenol, pH8, 0.1 mm zirconium beads and Mag lysis buffer. The DNA-containing phase was mixed with binding buffer and magnetic beads. DNA concentration was estimated by determining the absorbance at 260 nm using the nanodrop (Isogen, ND-1000).
PCR was performed in a final volume of 25 μl containing 1 μl of each primer ([…]), 1 μl dNTP (10 mM), 2.5 μl 10× DreamTaq Buffer including MgCl2 (Thermo Scientific), 0.2 μl DreamTaq DNA Polymerase (5 u/μ1, Thermo Scientific) and 50 ng of DNA. Initial denaturation was performed at 94° C. for 4 min, followed by 35 cycles of denaturation at 94° C. for 30 s, 54° C. annealing for 1 min, 72° C. for 1 min primer extension and a final extension at 72° C. for 5 min. Product formation was confirmed by electrophoresis of 5 μl on a 1% (w/v) agarose gel (Sphearo Q, Leiden, The Netherlands) stained with ethidium bromide.
These samples were analyzed by 16S rDNA Illumina sequencing at TNO Zeist (Netherlands).
Table 3. Microbial composition of biofilms grown for 48 (Table 3A) or 96 h (Table 3B) in the presence of different QS inhibitors. Composition was determined by 16S rDNA sequencing. The composition of the original inoculum used for all biofilms was also determined. “Unclass.” means: unclassified.

[3] = system: in vitro oral plaque biofilms; assay: Lactic acid production of biofilms grown with 3-oxo-N(2-oxocyclohexyl)dodecanamide and C12-HSL (interference test); conditions: all concentrations (25 or 100 μM), with 0, 25 or 100 μM C12-HSL; 48 h growth
Procedure: (§1) To estimate the cariogenic phenotype, lactic acid production of the in vitro oral plaque biofilms was determined prior to harvesting (Exerkate et al 2010). In short, the biofilms on coverslips were placed in a 24-well plate containing 1.5 ml of BPW with 0.2% sucrose. Lactic acid formation was allowed for 3 hr at 37° C. under anaerobic conditions. The total amount of lactic acid produced in this period was analyzed using a colorimetric assay described previously (van Loveren et al. (2000)) and expressed as mM lactic acid, and as μM lactic acid per 1×10^6 CFU.
In this experiment the effect of the quorum sensing molecule C12-HSL on the lactate reducing activity of 3-Oxo-N-(2-oxocyclohexyl)dodecanamide was tested. Biofilms were grown for 48 h in buffered McBain medium supplemented with 0.2% sucrose, in the presence of 0, or 25 or 100 μM 3-oxo-N(2-oxocyclohexyl)dodecanamide and 0, or 25 or 100 μM of C12-HSL. Medium was refreshed twice every day. After 48 h of growth, biofilms were transferred to BPW with 0.2% sucrose, and biofilms were allowed to produce lactate for 3 h.

[4] = system: in vitro oral plaque biofilms; assay: Lactic acid production assay of in vitro oral plaque biofilms
Procedure: All compounds tested of Table 1 were obtained from Sigma Aldrich. All compounds of Table 2, except 3-oxo-N(2oxocyclohexyl)dodecanamide, were kindly provided by M. Meijler, University of the Negev, Israel. The compounds were dissolved in DMSO and stored at −20 C. The compounds were continuously present at the indicated concentrations during biofilm growth, but not during further phenotypic analysis, i.e. lactate production.
as §1
Biofilms were grown for 48 h in buffered McBain medium supplemented with 0.2% sucrose in the presence of 100 μM of one of the compounds. Medium was refreshed twice every day. […]

Question: With `CCCCCCCCCC(=O)CC(=O)NC1CCCCC1=O` (stereo not shown) [3-Oxo-N, 3-oxo-N-(2-oxocyclohexyl)dodecanamide] as the molecule, how does the “inhibitory concentration (concentration that completely inhibits oral plaque biofilm growth)” value [1] read?
Answer: above 800 μM

Question: And the “in vitro oral plaque biofilm formation, Colony Forming Units” value ([1]; 100 μM, control 1.5×10^9 CFU)?
Answer: up to 6.6×10^8 CFU

Question: And the “biofilm production (visible amount of biofilm)” value ([1]; Example 2, 100 μM, 48 h)?
Answer: normal amounts of biofilm

Question: And the “in vitro oral plaque biofilm formation, Colony Forming Units” value ([1]; all the other concentrations (below 100 μM), same as control)?
Answer: 1.5×10^9 CFU

Question: What about the “effect on in vitro oral plaque biofilm formation” value ([1]; highest concentration tested (100 μM)) of the same molecule?
Answer: slightly affected

Question: What about the “Streptococcus reduced versus control” value ([2]; 100 μM, 48 h) of the same molecule?
Answer: more than 30%

Question: What about the “Veillonella more abundant than in control” value ([2]; 100 μM, 48 h) of the same molecule?
Answer: 10%

Question: And the “change in Actinobacillus species versus control” value ([2]; 100 μM, 48 h)?
Answer: increase

Question: What about the “Actinobacillus, share of biofilm composition” value ([2]; 48 h) of the same molecule?
Answer: 27.6%

Question: And the “Actinomyces, share of biofilm composition” value ([2]; 48 h)?
Answer: 0.0%

Question: And the “Campylobacter, share of biofilm composition” value ([2]; 48 h)?
Answer: 1.1%

Question: And the “Fusobacterium, share of biofilm composition” value ([2]; 48 h)?
Answer: 0.0%

Question: What about the “Granulicatella, share of biofilm composition” value ([2]; 48 h) of the same molecule?
Answer: 0.0%

Question: What about the “Haemophilus, share of biofilm composition” value ([2]; 48 h) of the same molecule?
Answer: 0.2%

Question: And the “Megasphaera, share of biofilm composition” value ([2]; 48 h)?
Answer: 0.0%

Question: And the “Neisseria, share of biofilm composition” value ([2]; 48 h)?
Answer: 0.0%

Question: What about the “Other taxa, share of biofilm composition” value ([2]; 48 h) of the same molecule?
Answer: 0.1%

Question: What about the “Porphyromonas, share of biofilm composition” value ([2]; 48 h) of the same molecule?
Answer: 0.0%

Question: What about the “Prevotella, share of biofilm composition” value ([2]; 48 h) of the same molecule?
Answer: 0.0%

Question: And the “Rothia, share of biofilm composition” value ([2]; 48 h)?
Answer: 0.0%

Question: What about the “Solobacterium, share of biofilm composition” value ([2]; 48 h) of the same molecule?
Answer: 0.0%

Question: What about the “Streptococcus, share of biofilm composition” value ([2]; 48 h) of the same molecule?
Answer: 34.3%

Question: What about the “Unclass. Pasteurellaceae, share of biofilm composition” value ([2]; 48 h) of the same molecule?
Answer: 0.6%

Question: And the “Veillonella, share of biofilm composition” value ([2]; 48 h)?
Answer: 36.0%

Question: And the “Actinobacillus, share of biofilm composition” value ([2]; 96 h)?
Answer: 12.0%

Question: What about the “Actinomyces, share of biofilm composition” value ([2]; 96 h) of the same molecule?
Answer: 0.0%

Question: And the “Campylobacter, share of biofilm composition” value ([2]; 96 h)?
Answer: 7.2%

Question: What about the “Fusobacterium, share of biofilm composition” value ([2]; 96 h) of the same molecule?
Answer: 0.0%

Question: And the “Granulicatella, share of biofilm composition” value ([2]; 96 h)?
Answer: 0.0%

Question: What about the “Haemophilus, share of biofilm composition” value ([2]; 96 h) of the same molecule?
Answer: 0.1%

Question: What about the “Megasphaera, share of biofilm composition” value ([2]; 96 h) of the same molecule?
Answer: 0.0%

Question: And the “Neisseria, share of biofilm composition” value ([2]; 96 h)?
Answer: 0.0%

Question: What about the “Other taxa, share of biofilm composition” value ([2]; 96 h) of the same molecule?
Answer: 0.3%

Question: And the “Porphyromonas, share of biofilm composition” value ([2]; 96 h)?
Answer: 0.0%

Question: What about the “Prevotella, share of biofilm composition” value ([2]; 96 h) of the same molecule?
Answer: 0.0%

Question: And the “Rothia, share of biofilm composition” value ([2]; 96 h)?
Answer: 0.0%

Question: And the “Solobacterium, share of biofilm composition” value ([2]; 96 h)?
Answer: 0.0%

Question: What about the “Streptococcus, share of biofilm composition” value ([2]; 96 h) of the same molecule?
Answer: 28.7%

Question: And the “Unclass. Pasteurellaceae, share of biofilm composition” value ([2]; 96 h)?
Answer: 0.0%

Question: What about the “Veillonella, share of biofilm composition” value ([2]; 96 h) of the same molecule?
Answer: 51.7%

Question: And the “total lactic acid production per biofilm vs control (FIG. 3)” value [3]?
Answer: statistical significant difference

Question: What about the “lactate production (FIG. 4A)” value ([4]; 10 μM) of the same molecule?
Answer: significantly reduces

Question: What about the “lactate production (FIG. 4A)” value ([4]; 100 μM) of the same molecule?
Answer: almost completely blocked

Question: What about the “lactate production corrected for CFU (FIG. 4B)” value ([4]; 100 μM or 10 μM) of the same molecule?
Answer: still lower

Question: And the “total lactic acid production per biofilm (FIG. 2)” value ([4]; 100 μM, biofilms grown 48 h, 3 h in BPW with 0.2% sucrose)?
Answer: reduced lactic acid production

Question: And the “lactate production after 96 hours of growth” value ([4]; 96 hours of growth)?
Answer: the reducing effect was still present
